# Source: patent publication US20260263471A1, “Methods of Treating Myelofibrosis” (Kartos Therapeutics, Inc., priority 2024, published 2026)
# “Also recorded” adds a separate entry of the source. Read-outs that look alike come from different tables or passages of the source.
# Legend:
# [1] = tested on: JAKi-naive MF patients with a suboptimal response to ruxolitinib; assay: Pooled published phase 3 data, suboptimal responders to ruxolitinib; type: in vivo, human
# Text: Data was pooled from published phase 3 studies for patients treated with ruxolitinib in the JAKi-naive MF setting (Verstovsek 2012; Mesa 2017; Pemmaraju 2023; Rampal 2023) to understand the natural history of patients with MF who achieve a suboptimal response to ruxolitinib, as defined in Study KRT-232-115 (e.g., a subject with an SVR>0% but <35% and a TSS reduction >0% but <50%) (FIG. 12).
# FIG. 12 illustrates suboptimal spleen and symptom responders from the pooled phase 3 ruxolitinib data, including patients treated with ruxolitinib monotherapy with and without placebo. SVR data was obtained for 465 subjects from the three studies COMFORT-1, […]-1, and TRANSFORM-1 (Verstovsek 2012; Mesa 2017; Pemmaraju 2023). TSS data was obtained for 528 subjects from the three studies. Week-24 data used as a proxy to Week-18 suboptimal response assessment.
# [2] = tested on: patients who discontinue ruxolitinib; details: after discontinuing ruxolitinib; 95% CI 8.0-22.7; cited from earlier work
# [3] = tested on: ruxolitinib-treated patients with myelofibrosis; details: cited from earlier work
# p21 = p21 expression in MF patient cells; type: cell-based, human; details: single agent alone
# MF patients = details: cited from earlier work
# [4] = tested on: subjects with MF who were relapsed or refractory to JAK inhibitor treatment; assay: KRT-232-101A Phase 2 open-label dose-finding study, navtemadlin monotherapy; type: in vivo, human; details: for TSS50 at Week 24 by MFSAF v4.0 (proportion of subjects) / SVR35 at Week 24 by Central Review (proportion of subjects): Rux-relapsed/refractory MF; for TSS50 at Week 24 by MFSAF v4.0 (proportion of subjects): n = 14; for SVR35 at Week 24 by Central Review (proportion of subjects): n = 14 with ruxolitinib washout ≥28 days; for circulating CD34+ cells: single agent
# Experimental: KRT-232-101A is a Phase 2 open-label, dose-finding study designed to evaluate the safety and efficacy of navtemadlin in subjects with MF who were relapsed or refractory to JAK inhibitor treatment. Subjects were treated with one of four dosing schedules to determine the optimal Phase 2 dose and schedule: navtemadlin 120 mg QD for Days 1-7 on a […]; navtemadlin 240 mg QD for Days 1-7 on a 21-day cycle; navtemadlin 240 mg QD for Days 1-7 on a 28-day cycle; or navtemadlin 240 mg QD for Days 1-5 on a 28-day cycle.
# Fourteen (14) of these subjects had ruxolitinib washout of ≥28 days prior to the baseline imaging assessment; efficacy results are reported for this subset of patients to control for the effects on the spleen after ruxolitinib discontinuation prior to Cycle 1 Day 1. Median treatment duration for all 32 subjects was 175.5 days (range, 2-469).
# [5] = tested on: treatment-naïve patients with MF; assay: KRT-232-114 Phase 2 open-label study, navtemadlin monotherapy; type: in vivo, human; details: Rux-naïve MF, 240 mg Days 1-7 of 28-day cycle
# Experimental: KRT-232-114 was a Phase 2 open-label study in which the safety and efficacy of navtemadlin monotherapy was assessed in treatment-naïve patients with MF. […] Median treatment duration was 183.0 days (range, 7-539).
# [6] = tested on: xenograft models, tumor types harboring TP53WT; assay: Non-clinical xenograft models; type: in vivo; details: various genetic backgrounds
# Text: (§1) Preclinical studies conducted with navtemadlin have yielded promising results in in vitro, ex vivo, and in vivo experiments, representing solid tumors and hematologic malignancies, including MF and acute myeloid leukemia secondary to an MPN.
# [7] = Standard panel of assays: mutagenicity, genotoxicity, phototoxicity
# Text: Repeat-dose toxicity studies of up to 13 weeks duration in rats and monkeys, along with in vitro and in vivo safety pharmacology studies, have been completed for navtemadlin. […] Nonclinical embryofetal toxicity and fertility studies have not been conducted for navtemadlin due to the well documented requirement for p53/MDM2 control during embryonic and fetal development. Based on its mechanism of action, navtemadlin alters cell proliferation and is expected to result in adverse effects on embryofetal viability and development.
# p21 mRNA = assay: p53 pathway activation, non-clinical pharmacology; details: direct transcriptional target of p53
# Text: as §1
# [8] = within the first 1-2 years of treatment
# [9] = KRT-232-101A, 240 mg Days 1-7 of 28-day cycle
# [10] = KRT-232-101A, 240 mg Days 1-7 of 28-day cycle, listed as Navtemadlin
structure (smiles),measurement,setting,value
"N#CC[C@H](C1CCCC1)n1cc(-c2ncnc3[nH]ccc23)cn1 [ruxolitinib, (R)-3-(4-(7H-pyrrolo[2,3-d]pyrimidin-4-yl)-1H-pyrazol-1-yl)-3-cyclopentylpropanenitrile]",mean SVR,"[1]; suboptimal spleen responders, N=253, Week-24 data as proxy for Week 18",18%
same,mean TSS reduction,[1]; suboptimal symptom responders (>0% but <50%),28.5%
same,median OS,[2],13.2 months
same,hazard ratio for survival,"[3]; patients with SVR≥25% to <35% versus SVR<10%, 95% CI 0.11-0.61",0.25
same,reduction in risk of death,[3]; patients with SVR≥25% to <35% versus SVR<10%,75%
same,hazard ratio for survival,"[3]; patients with SVR≥35% to <50%, 95% CI 0.11-0.56",0.24
same,p21 expression,p21,did not
same,"time after initiating treatment by which benefit in SVR and TSS reduction is achieved, then plateau",MF patients; Verstovsek 2012,≤ 12 weeks
same,MF patients with TSS reduction of greater than or equal to 50%,MF patients; ruxolitinib monotherapy,approximately 46%
same,responding patients achieving both SVR ≥35% and TSS ≥50%,MF patients; ruxolitinib monotherapy,20-25%
same,effect on bone marrow fibrosis,MF patients; [8],does not significantly affect
same,effect on variant allele frequency (VAF) of driver mutations,MF patients; [8],does not significantly affect
"CC(C)[C@@H](CS(=O)(=O)C(C)C)N1C(=O)[C@@](C)(CC(=O)O)C[C@H](c2cccc(Cl)c2)[C@H]1c1ccc(Cl)cc1 [navtemadlin, 2-((3R,5R,6S)-5-(3-chlorophenyl)-6-(4-chlorophenyl)-1-((S)-1-(isopropylsulfonyl)-3-methylbutan-2-yl)-3-methyl-2-oxopiperidin-3-yl) acetic acid]",TSS50 at Week 24 by MFSAF v4.0 (proportion of subjects),[4]; [9],14.3%
same,TSS50 at Week 24 by MFSAF v4.0 (proportion of subjects),[4]; [10],14.3% (2/14)
same,SVR35 at Week 24 by Central Review (proportion of subjects),[4]; [9],14.3%
same,SVR35 at Week 24 by Central Review (proportion of subjects),[4]; [10],14.3% (2/14)
same,median reduction in circulating CD34+ cells,"[4]; baseline Cycle 1 Day 1 to Week 24, 240 mg Days 1-7 of 28-day cycle",89.02%
same,subjects with improvement in fibrosis grade,"[4]; baseline to Week 24, all evaluable subjects (12/44)",27.3%
same,driver gene VAF,"[4]; pharmacodynamic analysis, KRT-232-101A",VAF reductions
same,circulating CD34+ cells,[4]; KRT-232-101A,robustly decreased; also recorded: reduced
same,circulating CD34+ cells,"[4]; KRT-232-101A, listed as Navtemadlin",decreased
same,SVR35 at Week 24 by Central Review (proportion of subjects),[5]; n = 14,14.3%
same,TSS50 at Week 24 by MFSAF v4.0 (proportion of subjects),[5]; n = 14,28.6%
same,SVR35 at Week 24 by Central Review (proportion of subjects),"[5]; n = 14, listed as Navtemadlin",14.3% (2/14)
same,TSS50 at Week 24 by MFSAF v4.0 (proportion of subjects),"[5]; n = 14, listed as Navtemadlin",28.6% (4/14)
same,p21 expression,p21,markedly increased
same,tumor growth,[6],dose-dependent reduction
same,mutagenicity / genotoxicity,[7],not mutagenic or genotoxic
same,potential for phototoxicity,[7],negligible potential
same,p21 mRNA,p21 mRNA,increases
